How the values were obtained:
RE strain HSV-1 = assay: HSV-1 recovery from tear film, cornea and trigeminal ganglia of treated rabbits; assay type: in vivo, NZW rabbit
Source text: The specified number of NZW rabbits (1.5-2.0 kg) were used. Animals were received at least two days prior to inoculation to allow them to accommodate to the conditions in the vivarium facility. This conditioning of the animals prior to inoculation minimizes animal variability. After the accommodation, the animals received a slit-lamp examination to exclude any animals with pre-existing anterior segment ocular defects. Animals were bi-laterally inoculated by intrastromal injection of 10^5 PFU RE strain HSV-1. The animals were then replaced individually into cages.
[…] This was carried out by obtaining tear film by swabbing the lower and upper conjunctival sacs and retaining the swab in the nasal fornix for 10 seconds. The swabs were eluted individually in HBSS. 50 μl aliquots of the virus-HBSS eluate were absorbed under confluent HFF cell monolayers for 5 minutes. The monolayers were hydrated with MEM, incubated at 37° C. and observed daily for 1 to 2 weeks to detect developing cytopathology consistent with HSV infection (HSV CPE).
(§1) On day 10 PI, the animals were sacrificed, the corneal epithelium was scraped from the eyes and epithelial and corneal stromal cultures were preformed on HFF cell monolayers. The separation of epithelial virus from deeper stromal virus infection allows for analysis of HSV in these distinct corneal layers. Corneal epithelial and stromal co-cultures were evaluated daily by inverted light microscopy.
At sacrifice, trigeminal ganglia were removed, washed in HBSS, minced and floated over duplicate HFF cell monolayers. The cell co-cultures were monitored by inverted light microscopy for 2 weeks. Negative cultures were blind passaged twice at 7 day intervals. Detection of HSV CPE in the whole-cell co-cultures was scored either positive or negative. HSV recovery from inventive compound-treated, TFT-treated and placebo-treated trigeminal ganglia was compared and differences in recovery rates analyzed.
as §1, with “7” for “10”, “performed” for “preformed”

VZV = assay: In vitro assay with VZV on HFF monolayers; assay type: cell-based; settings: Table 20, 7 days PI
Description: VZV was grown to a CPE level in vitro assays with VZV of 3-4+ on HFF cell monolayers. The VZV was scraped from the flask, centrifuged and the cell pellet was resuspended in 10 ml of complete medium. One hundred to 200 μl of the VZV cell associated inoculum was inoculated onto confluent HFF cell monolayers by absorption for 60 minutes at 37° C. After absorption of the virus, the inoculum was aspirated from the cell monolayers.
The VZV-infected monolayers were rehydrated with medium containing the appropriate concentrations of compounds to be tested. All monolayers were incubated at 37° C. Development of VZV cytopathology was monitored daily for 7 days by inverted light microscopy. Titers were calculated by multiple regression analysis.
Sham-inoculated, non-treated HFF cell monolayers were included among with the drug-treated monolayers as cell monolayer controls.
VZV inoculated, non-treated HFF monolayers were included as positive controls.

HSV-1 McKrae Strain [1] = assay: Direct virucidal efficacy against HSV-1 on HFF monolayers; assay type: cell-based
HSV-1 McKrae Strain [2] = assay: Intracellular antiviral activity against HSV-1 in HFF monolayers; assay type: cell-based; settings: Experiment 7 (Table 18), 24 h PI
Description: HSV-1 McKrae Strain was diluted to a final concentration of 10^5 PFU/ml in minimal essential medium (MEM). Hereinafter, this dilution is referred to as the HSV-1 Suspension for convenience.
With sufficient stirring, all the compounds completely dissolved.
HFF cell monolayers were inoculated with the HSV-Suspension prepared as above by absorption for thirty minutes at 37° C. After absorption of the virus, the inoculum was aspirated from the cell monolayers and the HSV-1 infected monolayers were rehydrated with medium containing the appropriate concentration of the solution of the compound by adding 500 microliters of each compound concentration to triplicate HSV-1 infected monolayers. All monolayers were incubated at 37° C. The developing HSV-1 cytopathology was monitored daily for two days by inverted light microscopy and titers were calculated by multiple […] analysis. For the intracellular anti-viral activity, "cell monolayer controls" were obtained using sham inoculated non-treated HFF cell monolayers along with the drug treated monolayers. "Positive controls" were obtained by using HSV-1 inoculated non-CTC compound treated HFF monolayers.

HFF cells = assay: Neutral red uptake toxicity; assay type: cell-based, human; settings: stationary cells

CC1=CC(C)=[N+]2CC[N+]3=C(C)C=C(C)[O][Co-3]23([NH3+])([NH3+])[O]1.[Cl-] [Compound 23, reference compound]
HSV-1 recovery from corneal epithelial cultures vs other therapy groups (RE strain HSV-1; Example 3): significantly reduced
HSV-1 recovery, corneal epithelium (C.E.) (RE strain HSV-1; Example 3 (Table 22)): 20%
HSV-1 recovery, corneal stroma (C.S.) (RE strain HSV-1; Example 3 (Table 22)): 50%
HSV-1 recovery, trigeminal ganglia (T.G.) (RE strain HSV-1; Example 3 (Table 22)): 50%
HSV-1 recovery, tear film (positive samples of total) (RE strain HSV-1; Example 3 (Table 22), day 3 PI): 100%
HSV-1 recovery, tear film (positive samples of total) (RE strain HSV-1; Example 3 (Table 22), day 5 PI): 100%
HSV-1 recovery, tear film (positive samples of total) (RE strain HSV-1; Example 3 (Table 22), day 7 PI): 80%
HSV-1 recovery, tear film (positive samples of total) (RE strain HSV-1; Example 3 (Table 22), day 9 PI): 0%
recovery of HSV-1 in tear film (RE strain HSV-1; Example 4): reduced the recovery of HSV-1 in tear film
HSV-1 recovery, corneal stroma (RE strain HSV-1; Example 5 (Table 23)): 80%
HSV-1 recovery (positive cultures per total) (RE strain HSV-1; Example 5 (Table 23), column 1): 0%
HSV-1 recovery (positive cultures per total) (RE strain HSV-1; Example 5 (Table 23), column 3): 100%
HSV-1 recovery (positive cultures per total) (RE strain HSV-1; Example 5 (Table 23), column 5): 90%
HSV-1 recovery (positive cultures per total) (RE strain HSV-1; Example 5 (Table 23), column 7): 80%
virucidal efficacy (VZV titer) (VZV; 0.1 mg/ml, toxicity observation questionable): T?
virucidal efficacy (VZV titer) (VZV; 0.5 mg/ml): 0 PFU/ml
virucidal efficacy (VZV titer) (VZV; 1 mg/ml): 0 PFU/ml
virucidal efficacy (VZV titer) (VZV; 2 mg/ml): 0 PFU/ml
virucidal efficacy (VZV titer) (VZV; 5 mg/ml): 0 PFU/ml
virucidal efficacy (HSV-1 titer) (HSV-1 McKrae Strain [1]; Experiment 1 (Table 2), 24 h PI, 0.001 mg/ml): 10^5 PFU/ml
virucidal efficacy (HSV-1 titer) (HSV-1 McKrae Strain [1]; Experiment 1 (Table 2), 24 h PI, 0.1 mg/ml): 10^1 PFU/ml
virucidal efficacy (HSV-1 titer) (HSV-1 McKrae Strain [1]; Experiment 1 (Table 2), 24 h PI, 1 mg/ml): 0 PFU/ml
virucidal efficacy (HSV-1 titer) (HSV-1 McKrae Strain [1]; Experiment 1 (Table 2), 24 h PI, 10 mg/ml): 0 PFU/ml
virucidal efficacy (HSV-1 titer) (HSV-1 McKrae Strain [1]; Experiment 1 (Table 2), 24 h PI, .01 mg/ml): 10^3 PFU/ml
virucidal efficacy (HSV-1 titer) (HSV-1 McKrae Strain [1]; Experiment 1 (Table 2), 48 h PI, 0.1 mg/ml): 10^5 PFU/ml
virucidal efficacy (HSV-1 titer) (HSV-1 McKrae Strain [1]; Experiment 1 (Table 2), 48 h PI, 1 mg/ml): 10^5 PFU/ml
virucidal efficacy (HSV-1 titer) (HSV-1 McKrae Strain [1]; Experiment 1 (Table 2), 48 h PI, 10 mg/ml): O/T
effective virucidal concentration IC90 (HSV-1 McKrae Strain [1]; Experiment 1 (Table 3), HSV-1): 100 µg/mL
virucidal efficacy (HSV-1 titer) (HSV-1 McKrae Strain [1]; Experiment 2 (Table 5), 24 h PI, 0.001 mg/ml): 10^3 PFU/ml
virucidal efficacy (HSV-1 titer) (HSV-1 McKrae Strain [1]; Experiment 2 (Table 5), 24 h PI, 0.01 mg/ml): 10^2 PFU/ml
virucidal efficacy (HSV-1 titer) (HSV-1 McKrae Strain [1]; Experiment 2 (Table 5), 24 h PI, 0.1 mg/ml): 10^1 PFU/ml
virucidal efficacy (HSV-1 titer) (HSV-1 McKrae Strain [1]; Experiment 2 (Table 5), 24 h PI, 1 mg/ml): 0 PFU/ml
virucidal efficacy (HSV-1 titer) (HSV-1 McKrae Strain [1]; Experiment 2 (Table 5), 24 h PI, 10 mg/ml): 0 PFU/ml
virucidal efficacy (HSV-1 titer) (HSV-1 McKrae Strain [1]; Experiment 2 (Table 5), 48 h PI, 0.1 mg/ml): 10^5 PFU/ml
virucidal efficacy (HSV-1 titer) (HSV-1 McKrae Strain [1]; Experiment 2 (Table 5), 48 h PI, 1 mg/ml): 0 PFU/ml
virucidal efficacy (HSV-1 titer) (HSV-1 McKrae Strain [1]; Experiment 2 (Table 5), 48 h PI, 10 mg/ml): O/T
virucidal efficacy (HSV-1 titer) (HSV-1 McKrae Strain [1]; Experiment 3 (Table 8), 24 h PI, 0.001 mg/ml): 10^5 PFU/ml
virucidal efficacy (HSV-1 titer) (HSV-1 McKrae Strain [1]; Experiment 3 (Table 8), 24 h PI, 0.01 mg/ml): 10^3 PFU/ml
virucidal efficacy (HSV-1 titer) (HSV-1 McKrae Strain [1]; Experiment 3 (Table 8), 24 h PI, 0.1 mg/ml): 10^1 PFU/ml
virucidal efficacy (HSV-1 titer) (HSV-1 McKrae Strain [1]; Experiment 3 (Table 8), 24 h PI, 1 mg/ml): 0 PFU/ml
virucidal efficacy (HSV-1 titer) (HSV-1 McKrae Strain [1]; Experiment 3 (Table 8), 48 h PI, 0.1 mg/ml): 10^5 PFU/ml
virucidal efficacy (HSV-1 titer) (HSV-1 McKrae Strain [1]; Experiment 3 (Table 8), 48 h PI, 1 mg/ml): 10^5 PFU/ml
virucidal efficacy (HSV-1 titer) (HSV-1 McKrae Strain [1]; Experiment 6 (Table 16), 24 h PI, 0.1 mg/ml): 10^0-1 PFU/ml
virucidal efficacy (HSV-1 titer) (HSV-1 McKrae Strain [1]; Experiment 6 (Table 16), 24 h PI, 0.5 mg/ml): 0 PFU/ml
virucidal efficacy (HSV-1 titer) (HSV-1 McKrae Strain [1]; Experiment 6 (Table 16), 24 h PI, 1 mg/ml): 0 PFU/ml
virucidal efficacy (HSV-1 titer) (HSV-1 McKrae Strain [1]; Experiment 6 (Table 16), 24 h PI, 2 mg/ml): 0 PFU/ml
virucidal efficacy (HSV-1 titer) (HSV-1 McKrae Strain [1]; Experiment 6 (Table 16), 24 h PI, 5 mg/ml): 0 PFU/ml
antiviral efficacy (HSV-1 titer) (HSV-1 McKrae Strain [2]; 0.01 mg/ml): 10^2 PFU/ml
antiviral efficacy (HSV-1 titer) (HSV-1 McKrae Strain [2]; 0.5 mg/ml): 0-10^1 PFU/ml
antiviral efficacy (HSV-1 titer) (HSV-1 McKrae Strain [2]; 1 mg/ml): 0 PFU/ml
antiviral efficacy (HSV-1 titer) (HSV-1 McKrae Strain [2]; 2 mg/ml): 0 PFU/ml
antiviral efficacy (HSV-1 titer) (HSV-1 McKrae Strain [2]; 5 mg/ml): 0 PFU/ml
toxicity IC50, neutral red uptake (HFF cells): 11.5 MCG/ML
